# Data reported in patent EP0385952A2, “Use of a naphthalenmethanamino derivative as antiinflammatory agent and pharmaceutical compositions containing it” (SANDOZ AG, priority 1989, dated 1990).
# Read-outs that look alike come from different tables or passages of the source. Marks after values point to notes of the source that are not given here.
# Experiments:
# mice = experiment: Croton oil-induced pinnal swelling in mice (irritant contact dermatitis, 2.1.2.); format: in vivo; conditions: simultaneous, topical, pinnal weight after 6 hours
# Description: (§1) Skin irritation with arachidonic acid or cantharidin is often used to experimentally induce inflammation in order to evaluate the anti-inflammatory activity of a compound [see e.g. Inflammation 8 (1984) 134-135; 10 (1986) 205-214]. NMRI mice (8 animals per group) receive 10 µl of a 10 % solution of arachidonic acid [J.M. Young et al., J. Invest. Derm. 82 (1986) 367-371] in acetone or, respectively, 0.08 % cantharidin [K.E. Swingle et al., Arch. Int. Pharmacodyn. Ther. 254 (1981) 168-176] in acetone applied to the medial and lateral surface of the right external ear. Treatment is performed either prophylactically 30 minutes before irritation (arachidonic acid) or, respectively, either simultaneously with the application of irritant solution or therapeutically 20 minutes after irritation (cantharidin), by a single epicutaneous application of the test compound dissolved in a mixture of N,N-dimethylacetamide, acetone and alcohol (2:2:4). The evaluation of the test group is effected by comparison with a control group of animals having received on the right ear lobe only the carrier substance or the irritant solution. The animals are killed 1.5 hours (arachidonic acid) or, respectively, 17 hours (cantharidin) after application of the irritant and efficacy in assessed by determination of the differences in auricular weight. Differences in weights (D) of right (involved) and left (uninvolved) pinnae of animals treated with test compound and arachidonic acid or cantharidin (T-group) are compared with differences in mice treated with arachidonic acid only or cantharidin only (C-group). Efficacy (%) is calculated according to the equation: [formula]
# This model is similar to the above (see 2.1.1.). Skin inflammation is induced with 15 µl of 0.23 % croton oil in a mixture of dimethylacetamide, acetone and ethanol (2:4:4), or with 10 µl of 0.005 % TPA [12-O-tetradecanoylphorbol-13-acetate; Sigma] prepared in acetone with 0.5 % dimethylsulfoxide. Topical treatment is performed either simultaneously with the irritation (croton oil) or 20 minutes after the application (TPA). The test compound is prepared in DAE. Efficacy is assessed 6 hours after onset of irritation by determination of the auricular weight as described above.
# HACAT cell line = experiment: Modulation of keratinocyte gene expression and NAP1/IL-8 protein release; format: cell-based, human; conditions: for inhibition at 10 µM: Homo sapiens, HaCaT, ELISA
# Description: The HACAT cell line is grown in 200 ml culture flasks in KGM medium (Clonetics) at 0.06 mM Ca until 50 % confluency. Thereafter cells are starved in KBM medium (Clonetics) for 2 days. The resulting preconfluent cells are then stimulated with αTNF (Genzyme, 500 or 1000 U/ml) or IL-1α (Boehringer, 200 U/ml) obtained from stock solutions and further diluted in KBM medium for the indicated times in the presence of test substance. At the end of the incubation period total cellular RNA is extracted as described above under 1.1.5. 20 µg RNA is run on 1 % formaldehyde agarose gels and transferred onto hybond N filters (Amersham) in a northern capillary transfer using 20xSSC. The filters are then baked for 2 hours and prehybridized for 4 hours. Hybridization (16 hours) and washing are performed at 65°C using oligonucleotide probes for NAP1/IL-8. For control, blots are rehybridised with an actin probe (Oncor). Concentrations of NAP1/IL-8 in the supernatants of the keratinocyte cultures are determined using a solid phase double ligand ELISA.
# [1] = test system: Cyclooxygenase (prostaglandin synthetase); experiment: Cyclooxygenase inhibition; format: biochemical; conditions: at 100 µM
# NMRI mice = experiment: Arachidonic acid-induced pinnal swelling in mice (irritant contact dermatitis, 2.1.1.); format: in vivo; conditions: prophylactic, epicutaneous, pinnal weight
# Description: as §1
smiles,measurement,setting,value
"CN(C/C=C/c1ccc(O)cc1)Cc1cccc2ccccc12 [compound of the invention, (E)-N-methyl-N-[3-(4-hydroxyphenyl)-2-propenyl]-1-naphthalene-methanamine]",Efficacy (%),mice; test concentration 1.2 %,67** %
same,Efficacy (%),mice; test concentration 3.6 %,81** %
same,inhibition at 10 µM,HACAT cell line; read-out: inhibition of IL-1α-stimulated release of NAP1/IL-8,40%
same,inhibition at 10 µM,HACAT cell line; read-out: inhibition of αTNF-stimulated release of NAP1/IL-8,90%
same,αTNF-induced NAP1/IL-8 mRNA accumulation decreased to,"HACAT cell line; remaining level, 20.0 µM",60%
same,Cyclooxygenase (prostaglandin synthetase) inhibition,[1],not inhibited
same,Efficacy (%),NMRI mice; test concentration 1.2 %,33** %
same,Efficacy (%),NMRI mice; test concentration 3.6 %,48*** %
